From EPA's ToxValDB 9.5 (doi:10.2903/j.efsa.2016.4574)
≈ marks a conversion by molar mass, not a printed value.

Experiments:
Folsomia candida = details: chronic/long-term; duration: 28 days; mortality
Hypoaspis aculeifer = details: chronic/long-term; duration: 14 days; mortality
Oncorhynchus mykiss = details: acute; duration: 96 hours; mortality
Tagia sp. = details: for LC50: acute, duration: 14 days, mortality; for NOEC: chronic/long-term, duration: 56 days, growth
Apis mellifera = details: acute, duration: 48 hours, mortality
Canidae = details: Dog Other, clinical chemistry
Colinus virginianus = details: chronic
Coturnix japonica = details: acute; oral; mortality
Daphnia magna = details: chronic/long-term; duration: 21 days
Lepomis macrochirus = details: acute; duration: 96 hours; mortality
Oryctolagus sp. = details: reproduction developmental; body weight
Pimephales promelas = details: chronic/long-term; duration: 28 days; growth
Typhlodromus pyri = experiment: LR50; higher = less toxic; details: not reported; no effects

C=CCNC(=O)c1c([Si](C)(C)C)sc(C(=O)O)c1C [Silthiofam allyl acid] was tested. Which NOEC (Folsomia candida) did it give?
Its NOEC is 0.207 mg/kg.

What about the NOEC (Hypoaspis aculeifer) of the same compound?
The NOEC was 0.207 mg/kg.

And the LC50 (Oncorhynchus mykiss)?
Its LC50 is > 113 µg/mL.

And the LC50 (Tagia sp.)?
Its LC50 is > 466 mg/kg.

And the NOEC (Tagia sp.)?
The NOEC was 0.207 mg/kg.

How did the NOEC (Folsomia candida) turn out when Cc1c(C(=O)O)sc([Si](C)(C)C)c1C(N)=O [Silthiofam amide acid] was run?
Its NOEC is 0.194 mg/kg.

And the NOEC (Hypoaspis aculeifer)?
The NOEC was 0.194 mg/kg.

And the LC50 (Oncorhynchus mykiss)?
The LC50 was > 110 µg/mL.

What about the LC50 (Tagia sp.) of the same compound?
Its LC50 is > 460 mg/kg.

What about the NOEC (Tagia sp.) of the same compound?
The NOEC was 0.194 mg/kg.

Which LD50 (Apis mellifera; dermal) does the source give for C=CCNC(=O)c1c([Si](C)(C)C)sc(C)c1C [Silthiofam] here?
Its LD50 is > 100 µg/piece.

What about the LD50 (Apis mellifera; oral, unspecified) of the same compound?
The LD50 was > 106 µg/piece.

And the NOAEL (Canidae; chronic, duration: 1 years, oral)?
The NOAEL was 10 mg/kg-day.

And the NOAEL (Canidae; subchronic, duration: 90 days)?
The NOAEL was 10 mg/kg-day.

And the NOEL (Colinus virginianus)?
The NOEL was 250 mg/kg-day.

What about the LD50 (Coturnix japonica) of the same compound?
The LD50 was > 2250 mg/kg-day.

What about the NOEC (Daphnia magna) of the same compound?
The NOEC was 0.47 mg/L.

And the NOEC (Folsomia candida)?
The NOEC was 1.33 mg/kg.

What about the LC50 (Lepomis macrochirus) of the same compound?
Its LC50 is 11 µg/mL (≈ 41.1 µM).

And the NOAEL (Oryctolagus sp.)?
Its NOAEL is 20 mg/kg-day.

And the NOEC (Pimephales promelas)?
Its NOEC is 0.89 mg/L.

What about the LD50 (Rattus norvegicus; acute, oral, mortality) of the same compound?
The LD50 was > 5000 mg/kg.

What about the NOAEL (Rattus norvegicus; chronic, duration: 2 years, M, histopathology: neoplastic) of the same compound?
Its NOAEL is 5 mg/kg-day.

What about the NOEL (Rattus norvegicus; reproduction developmental, body weight) of the same compound?
Its NOEL is 23.5 mg/kg-day.

What about the LC50 (Tagia sp.) of the same compound?
Its LC50 is 66.5 mg/kg.

What about the NOEC (Tagia sp.) of the same compound?
Its NOEC is 30 mg/kg.

What about the LR50 (Typhlodromus pyri) of the same compound?
Its LR50 is > 40 g/ha.
